# Experimental data: patent US20030191120A1, “Antiparkinsonism drugs” (priority 2000, published 2003)
# What was measured:
# normal mice = assay: Spontaneous locomotor activity after oral administration to normal mice (SCANET apparatus); format: in vivo, C57BL/6 mice (male); details: p.o.
# Protocol: The enhancing effects of compound (IX) on the spontaneous locomotor activity were examined in normal mice.
# Compound (IX) was orally administrated to C57BL/6 mice (male) and the spontaneous locomotor activity was measured with a locomotor activity measuring apparatus (SCANET, TOYO sangyo). Mice were familiarized to the cage of the apparatus for at least 60 min. Compound (IX) (1,3,10 mg/kg) or vehicle (vehicle, distilled water Otsuka) was administrated orally. The spontaneous locomotor activity was measured for 5 hours after the mice were returned to the cage.
# [1] = tested on: reserpine-induced cataleptic posture; assay: Catalepsy test in mice pre-treated with reserpine; format: in vivo, ddy mice (male); details: 1 hour after administration
# Protocol: The effects of compound (IX) in single administration and in combination with L-DOPA on cataleptic responses were examined in mice pre-treated with a monoamine-depleting drug, reserpine. Reserpine (5 mg/kg, i.p., Apoplon Inj, Daiichi Pharmaceutical) was administrated to ddy mice (male). On the next day, compound (IX) (0.3, 1, 3 mg/kg, p.o.) with or without L-DOPA (25, 100 mg/kg, i.p., dissolved in 0.1N HCl and diluted with distilled water for injection (Otsuka Pharmaceutical)) was administrated to the mice and catalepsy test was performed after 1 hour. When L-DOPA was administrated, mice were pre-treated with carbidopa (25 mg/kg, i.p., 0.5% lactic acid) before 30 min. The forelimbs or hindlimbs of each mouse were placed on a 4.5 cm high horizontal bar and the time was measured (cut off time 30 sec) until both legs reach the floor. The cataleptic responses were scored as follows (less than 5 sec.: 0 point, 5 sec. to less than 10 sec.: 1 point, 10 sec to less than 15 sec.: 2 points, 15 sec. to than 20 sec.: 3 points, 20 sec. to less than 25 sec.: 4 points, 25 sec. to less than 30 sec.: 5 points, 30 sec. or more: 6 points). For forelimbs, the scores for 3 repetitive tests were summated. For hindlimbs, the tests were performed 5 times and of which 3 scores were summated excluding the highest and lowest scores. The catalepsy scores were calculated as the total scores for forelimbs and hindlimbs.
# MPTP-treated mice = assay: Spontaneous locomotor activity in MPTP-treated mice (Parkinson's disease model); format: in vivo, C57BL/6 mice (male); details: MPTP 40 mg/kg x 2 mice, compound (IX) alone 3 mg/kg p.o., P < 0.05 vs MPTP-treated control group
# Protocol: Mice injected with a dopaminergic toxin, MPTP were used as a model for Parkinson's disease and the effects of single administration of compound (IX) on the reduction of the spontaneous locomotor activity caused by MPTP-treatment were examined.
# MPTP (40 mg/kg, i.p., saline) was injected twice at 24-hr intervals to C57BL/6 mice (male), and the day after the last administration, the mice were placed in locomotor activity measuring apparatus. After 30 min, compound (IX) alone (0.3, 1, 3 mg/kg, p.o.) was administered.
# 6-OHDA-treated mice = assay: Spontaneous locomotor activity in mice injected intracerebroventricularly with 6-OHDA (Parkinson's disease model); format: in vivo, C57BL/6 mice (male); details: 6-OHDA mice
# Protocol: Mice injected intracerebroventricularly with a monoaminergic toxin, 6-OHDA were used as a model for Parkinson's disease.
# To C57BL/6 mice (male) were administrated desipramine (desipramine (25 mg/kg, i.p., 0.5%), lactic acid) and 6-OHDA (40 μg/μl/mouse, 0.2% ascorbic acid) was injected in the cerebroventricule after 30 min. The mice were placed in the locomotor activity measuring apparatus after one day. Compound (IX) (0.3, 1 mg/kg), with or without L-DOPA (10 mg/kg, i.p., dissolved in 0.1N HCl and diluted with distilled water or injection, Otsuka Pharmaceutical), was administrated after 90 min, then the spontaneous locomotor activity was measured for 5 hours. When L-DOPA was administrated, mice were pre-treated with carbidopa (25 mg/kg, i.p., 0.5% lactic acid) before 30 min.
compound,measurement,setting,value
C[C@@H]1OC(=O)N[C@@H]1C(=O)NC(Cc1cscn1)C(=O)N1CCC[C@H]1C (stereo in doubt) [Compound (IX)],dose at which the spontaneous locomotor activity was increased,normal mice,≥ 3 mg/kg
same,"catalepsy score, mean",[1]; compound (IX) 1 mg/kg p.o. + L-DOPA 100 mg/kg i.p.,2.3
same,"catalepsy score, mean","[1]; compound (IX) 1 mg/kg p.o. + L-DOPA 100 mg/kg i.p., listed as compound (IX)",significant depression effect
same,"catalepsy score, mean",[1]; compound (IX) 3 mg/kg p.o. + L-DOPA 100 mg/kg i.p.,9.2
same,"catalepsy score, mean","[1]; compound (IX) 3 mg/kg p.o. + L-DOPA 100 mg/kg i.p., listed as compound (IX)",significant depression effect
same,"spontaneous locomotor activity, Total",MPTP-treated mice,5463 ± 700
same,"spontaneous locomotor activity, Total",MPTP-treated mice; listed as compound (IX),significantly increased
same,"spontaneous locomotor activity, Total","6-OHDA-treated mice; compound (IX) 1 mg/kg p.o. in combination with L-DOPA 10 mg/kg i.p. (carbidopa pre-treatment), 5 hours, P < 0.01 vs 6-OHDA-treated group",14468 ± 3618
same,"spontaneous locomotor activity, Total","6-OHDA-treated mice; compound (IX) 1 mg/kg p.o. in combination with L-DOPA 10 mg/kg i.p. (carbidopa pre-treatment), 5 hours, P < 0.01 vs 6-OHDA-treated group, listed as compound (IX)",significant and remarkable increase
same,"spontaneous locomotor activity, Total","6-OHDA-treated mice; compound (IX) 1 mg/kg p.o. in single administration, measured for 5 hours, 1 mg/kg",2512 ± 333
same,"spontaneous locomotor activity, Total","6-OHDA-treated mice; compound (IX) 1 mg/kg p.o. in single administration, measured for 5 hours, listed as compound (IX), 1 mg/kg",did not show significant increase
